Laboratory results: patent US7459479B2, “Benzylated PDE4 inhibitors” (Biolipox AB, priority 2000, dated 2008)

What was measured:
[1] = system: PDE4 (human promonocytic U937 cells); test: PDE4 inhibition, Phosphodiesterase [3H] cAMP SPA enzyme assay with U937 extract; assay type: biochemical; conditions: 1 μM [3H] cAMP
Excerpt: A test compound may be screened for activity against 11 of the major classes of mammalian cyclic nucleotide phosphodiesterase (termed PDE 1 through 11). These PDE's may use cAMP or cGMP or both cyclic nucleotides as substrates. […] PDE's for some of the various assays may be fully or partially purified from the following cells/tissues: PDE 1 (bovine heart), PDE 2 (human platelets), PDE 3 (human platelets), PDE4 (human promonocytic U937 cells) and PDE 5 (human platelets).
In the following descriptions, amounts are exemplary, and may be varied. […] Sonicated cell extracts are then centrifuged at 70,000 g for 30 minutes and supernatants removed. Sucrose is added to a final concentration of 0.25 M, then the extracts are aliquoted and stored at −80° C.
Briefly, the assay is run for 60 minutes at room temperature in 50 μL volumes in 1 μM [^3H] cAMP, 50 mM Tris Cl, 10 mM MgCl2 pH 7.5. U937 extract is added such that less than 10% of substrate was consumed. Test compound or vehicle is added to the desired concentration. […] Reactions are performed in duplicate. Reactions are terminated with 50 μl of Yttrium SPA beads and then counted on a Packard Scintillation counter (TopCount™) for 1 minute.

HARBS site of PDE4 [2] = test: Displacement of [3H]-ROLIPRAM from the high affinity binding site (HARBS) in mouse brain membranes; conditions: for Ratio (PDE4/HARBS): ratio of PDE4 catalytic IC50 to HARBS IC50
Method: (§1) In order to perform this assay, female CD1 mice are sacrificed via the intraperitoneal injection of 100 μL ethanol, and the brain tissue is homogenized in 5 mL of ice-cold Tris-HCl, pH 8.00 supplemented with 1.2 mM MgCl2, 1 mM benzamidine (Sigma; Catalogue No. B 6506) and 0.1 mM PMSF (Sigma; Catalogue No. P 7626). The suspension is centrifuged twice at 30,000×G at 4° C. and then the supernatant discarded. The pellet is resuspended in buffer, and adjusted to a protein concentration of 0.5 mg/mL. Compounds to be tested are dissolved in DMSO and pipetted in triplicate into a 96 well microplate at concentrations ranging from 1 to 30,000 nM. […] The plate is incubated at 4° C. for 1 hour. Contents of the plate are aspirated through a Whatman GF/C filterplate, and rinsed with 4×200 μL ice-cold buffer. The plate is dried overnight, and then 30 μL of Microscint 20 (Packard; Catalogue No. 6013621) is added to each well, and plate is read in the scintillation counter with a sampling time of 2 minutes/well. […] Triplicate determinations should be performed at each concentration.

HARBS site of PDE4 [3] = target: T1, HARBS site of PDE4; test: as above; conditions: for IC50: mouse brain membranes, [3H]-ROLIPRAM displacement
T1 construct: HARBS IC50; other: mouse brain membranes, [3H]-ROLIPRAM displacement; other: mouse brain; other: relative to ROLIPRAM (25, 26) or
Method: as §1

ferret model of emesis = test: Emetic threshold after intravenous infusion in the ferret model of emesis; assay type: in vivo, ferret (Mustela putorius furo); conditions: for Emetic Threshold: 5 minute intravenous infusion, 3 hour observation
Excerpt: The most recognized pre-clinical animal model for emesis is the ferret. The ferret undergoes a very characteristic, reproducible and well-documented series of behavioral responses, including backward walking, pawing of the mouth, arching of the back, retching and vomiting when dosed with an emetogenic compound. With respect to PDE4 inhibitors their emetogenic potential has been correlated with the ability of compounds to bind to a conformer of the enzyme to which ROLIPRAM™ binds with nanomolar affinity (the HARBS binding site). The central nervous system (CNS) and emetic effects of PDE4 inhibitors are therefore thought in large part to be due to the interaction of these compounds with this particular conformer of PDE4 which is especially prevalent in both the central and peripheral nervous system as well as in cells of the lumen of the gastrointestinal tract (i.e., parietal cells of the stomach).
Adult male ferrets (Mustela putorius furo, sable, 0.75-1.5 kg, Marshall Farms, USA) were quarantined and acclimated to the testing facility for seven days prior to initiation of the study. For intravenous infusion dosing, a catheter was surgically inserted in the jugular vein a minimum of 14 hours prior to administration of test articles and the catheter was maintained for patency by flushing with heparin solution daily. After surgery for catheter insertion the ferrets were individually housed in cages. Animals were fasted 12-16 hours prior to dosing and during the behavioral assessment period. They were returned to normal food diet after the observation periods. Animals found acceptable for inclusion in the study were randomly assigned to the each of the study groups (n=3 for each of the two treatment groups and n=3 for the vehicle negative control group).
Test compounds (ROLIPRAM™ and Compound 25) were freshly dissolved on the day of dosing in the vehicle, polyethylene glycol (PEG) 200 (Sigma catalogue number P-3015), to the required concentration in order to achieve the target dose. Animals in the control (PEG 200) and treatment (ROLIPRAM™ or Compound 25) groups were administered the dosing formulation at 3 ml/kg by intravenous infusion over a 5 minute period via the catheter inserted in the jugular. Continual observation for signs of emetic behavior were begun for each of the animals in the study groups immediately following completion of the 5 minute dosing period and for a period of three hours. Sequential recordings of emetic behaviour were noted on a separate data collection sheet for each animal which included the time of onset of each event as well as the duration and nature of the event (i.e., retching, gagging, vomiting, back arching, backward walking etc.).
The target doses for each of the test articles are shown below in Table 3. If animals expressed no emetic behaviour at the lowest dosage then animals were dosed again with semi-log increasing doses of test article and the three hour observation period repeated until the emetic threshold (lowest of test doses causing emesis) was reached or until the highest of the 4 target doses was completed. There was a 24 hr. washout period between each of the successive ascending doses of test article to allow the compound to clear the animals' system. […] If the emetic response was minimal at a particular dose level then the next dose level could be performed to confirm the threshold level.

Compound | IC50 [1] [nM] | Ratio (PDE4/HARBS) (HARBS site of PDE4 [2]) | IC50 (HARBS site of PDE4 [3]) [nM] | reduction of HARBS binding affinity relative to parent non-benzylated compound (HARBS site of PDE4 [3]; relative to ROLIPRAM (25, 26) or ARIFLO (41)) [fold] | Emetic Threshold (ferret model of emesis; ferrets) [mg/kg] | Emetic Threshold (ferret model of emesis; ferrets, listed as compound 25) | higher doses required to achieve emesis compared to rolipram (ferret model of emesis; ferrets, i.v. infusion) | emetic behaviour (ferret model of emesis; up to and including highest dose level tested (3 mg/kg) i.v. infusion) | greater affinity to high affinity site than the concentration required for half-maximal inhibition of PDE4 catalytic activity (HARBS site of PDE4 [2]) [fold] | emetic signs (ferret model of emesis; 0.1 mg/kg i.v. infusion) | ferrets exhibiting a definite emetic response (ferret model of emesis; 0.3 mg/kg i.v. infusion, n=3) | mild retches observed (ferret model of emesis; 0.3 mg/kg i.v., in one ferret, over 9 minutes starting at 10 minutes post-dosing)
COc1ccc([C@]2(C#N)CC[C@@H](C(=O)O)CC2)cc1OC1CCCC1 [ARIFLO ™, reference compound] | 180 | 2.4 | 76 |  |  |  |  |  |  |  |  | 
COc1cc(CC2C(=O)NCC2c2ccc(OC)c(OC3CCCC3)c2)ccc1OCc1ccccc1 (centres unmarked) [Compound 25] | 400 | 1.1 | 361 | 56 | >3.0 | greater than 3 mg/kg | at least 10 fold | no emetic behaviour whatsoever |  |  |  | 
COc1cc(CC2C(=O)NCC2c2ccc(OC)c(OC3CCCC3)c2)ccc1O (centres unmarked) [Compound 26] | 1490 |  |  |  |  |  |  |  |  |  |  | 
COc1ccc(C2CNC(=O)C2)cc1OC1CCCC1 (centres unmarked) [ROLIPRAM ™, reference compound] |  |  |  |  | 0.3 |  |  |  | 65 | Emetic signs were also evident | one of the three ferrets | 5
